Entries after “also recorded” stand apart in the source; their conditions may differ.
What was measured:
[1] = test system: primary human dermal fibroblasts; test: Fibroblast monolayer scratch assay, human fibroblasts; assay type: cell-based; settings: human fibroblasts from three female donors; 10^−10M to 10^−6 M; pilot experiments
Method: Human skin was transferred to the laboratory in holding media (DMEM containing 4% penicillin-streptomycin and Amphotericin B solution) within 30 minutes of collection. Once defatted, the skin was rinsed in HBSS with 4% PSA followed by DPBS without antibiotics, then cut into thin strips and floated on 0.2% Dispase II in DPBS overnight at 4° C., followed by manual separation of the epidermis from the dermis. Primary human epidermal keratinocytes and primary human dermal fibroblasts were then isolated.
(§1) Confluent wells of both primary keratinocytes and fibroblasts were subjected to a highly validated scratch wounding procedure (using a 1 mL sterile filter tip). Post-scratching, cells were rinsed with DPBS and cell-specific media containing treatments added to each well. Cells were imaged on a ptychographic live cell imaging platform (Livecyte 2™, Phasefocus) for 24-48 hours. Automated tracking of individual unlabeled cells will be combined with 3D cell measurements to quantify a range of wound-relevant cell parameters including scratch closure rate.
(§2) Dose range finding experiments were conducted with E4 (10^−10M to 10^−6M) and E2 with and without Mitomycin C (MMC, to inhibit proliferation) using vehicle as negative controls.

[2] = test system: mouse fibroblasts; test: Fibroblast monolayer scratch assay, mouse fibroblasts; assay type: cell-based; settings: mouse fibroblasts (female C57Bl/6); 10^−7M; pilot experiments
Method: as §1, §2

C[C@]12CC[C@@H]3c4ccc(O)cc4CC[C@H]3[C@@H]1[C@@H](O)[C@@H](O)[C@@H]2O [E4, 1,3,5 (10)-estratrien-3,15alpha,16alpha,17beta-tetrol]
fibroblast migration / in vitro wound closure [1]: promotes in vitro wound closure to a similar extent as E2; also recorded: as effective as E2 in promoting fibroblast migration
fibroblast migration / in vitro wound closure [2]: promotes in vitro wound closure to a similar extent as E2; also recorded: as effective as E2 in promoting fibroblast migration
